Consider 17 compounds from paper PMC12608305, “Rapid Hemi-Synthesis of Multifunctional Amphiphilic Derivatives Based on Polyphenolic Extractives: Surface Activity, Antioxidant and Antibacterial Properties” (Molecules, 2025).

In brackets after ≈: the same amount, converted by molar mass. Like-named read-outs stand apart in the source and are kept apart here.

Data set [1] can be described thus: Water solubility by saturating water, lyophilizing and weighing. To be noted: thermodynamic from solid; saturated water. The format is physicochemical. The text has this: Solubility in water was expressed in mol/L (M).
The nature of data set [2]: Surface tension in water by the Wilhelmy plate method (surfactant properties). The format is physicochemical. To be noted: 25 °C; for Minimum occupied area per molecule at the air–water interface (σ): calculated from curve log C vs. γ; for Critical aggregation concentration (CAC): from curve log C vs. γ. The protocol: The surface tension (γ) in water was determined using the Wilhelmy plate method at 25 °C. […] With this curve, parameters such as critical aggregation concentration (CAC) and minimum occupied area per molecule at the air–water interface (σ) were calculated, as well as the surface tension that remains constant from CAC (γw).
Surface tension (γ) was obtained by the Wilhelmy plate method, using a Force Tensiometer KRUSS at 25 °C. […] The curve log C vs. γ allowed us to calculate critical aggregate concentration (CAC), minimum occupied area per molecule at the air–water interface (σ) and the surface tension (γw) that remains constant after the CAC was obtained. Each measurement was conducted in triplicate.

For data set [3] the following is noted: DPPH; cited from earlier work.
The subject of a further data set is E. coli. Set-up: method as in PMID 743641. To be noted: cited from earlier work.
Data set [4] can be described thus: Radical scavenging activity by the DPPH method. The format is biochemical. As to conditions: DPPH 10^−4 M in methanol, triplicate. The protocol:
This method measures the antioxidant capacity of a compound to reduce the purple-colored DPPH radical solution to yellow-colored DPPH-H. DPPH solution was prepared at a concentration of 10^−4 M in methanol. The IC50 was calculated using the formula IC50 = (y − b)/a obtained from the equation of the line y = ax + b where a is the directing coefficient and b the y-intercept. Each measurement was conducted in triplicate.
(In general: Loss of DPPH colour is used to gauge radical scavenging.)

In a further data set the test system is Escherichia coli. The experiment in a line: Antibacterial activity by resazurin reduction test. The format is cell-based. To be noted: fluorescence over 72 h, compounds in DMSO, triplicate, read-out: Antibacterial Activity Against E. coli: IC50. An excerpt:
These properties are usually studied by dilution and disk diffusion assay. The resazurin test is another method that can be used for measuring antibacterial activity. It is a protocol based on cell viability assays. […] This process leads to the formation of a pink fluorescent substance called resorufin. This reduction allows bacterial metabolic activity to be measured directly by measuring fluorescence. This is used to determine the antibacterial activity of the compounds being tested, using a fluorescence microplate reader. The lower the resorufin production, the lower the measured fluorescence and the higher the antibacterial activity.
Resazurin is a blue colorant that reduces to the fluorescent pink resorufin when metabolized by the cells from bacterial respiratory chains. The metabolic activity of the cells was measured by reading the fluorescence over 72 h using a BioTek FLx800 Fluorescence Microplate Reader.
Strains of Escherichia coli were cultured for 12 h on solid LB medium (Luria–Bertani) at 35 °C. The next day, some colonies were taken and placed in a nutrient broth and incubated at 35 °C until an optical density of 0.4 was obtained. […] A control with ethoxyethanol was performed. A positive control to verify the growth of the bacteria in the absence of catechin or hemi-synthesis compound was performed as well. The IC50 was calculated using the formula IC50 = (y − b)/a obtained from the equation of the line y = ax + b, where a is the directing coefficient and b the y-intercept. Each measurement was conducted in triplicate.
(The colour change of resazurin is a common sign of viable cells or microbes.)

Details of data set [5]: method as in doi:10.1016/j.fluid.2014.09.013. As to conditions: anhydrous catechin; cited from earlier work.

Take `CCCCCCCCCCCCCC(=O)OC1Cc2c(O)cc(O)cc2OC1c1ccc(O)c(O)c1` (stereo not shown) [6c, 2-(3,4-Dihydroxyphenyl)-5,7-dihydroxychroman-3-yl tetradecanoate]: in data set [1], the concentration in solution (solubility) was 4800 µM (≈ 2400 µg/mL). In data set [2], the “Surface tension from CAC (γw)” value was determined as 41 mN/m, the “Minimum occupied area per molecule at the air–water interface (σ)” value (“Minimum occupied area per molecule” below) is given as 23 Å^2/molecule and the “Critical aggregation concentration (CAC)” value was determined as 590 µM.
On the same counts, the results for `CCCCCCCCCCCC(=O)OC1Cc2c(O)cc(O)cc2OC1c1ccc(O)c(O)c1` (stereo not shown) [6b, 2-(3,4-Dihydroxyphenyl)-5,7-dihydroxychroman-3-yl dodecanoate] are 4800 µM (≈ 2270 µg/mL), 49 mN/m, 17 Å^2/molecule and 680 µM.
On the same counts, the results for `CCCCCCCCCCCCCCCC(=O)OC1Cc2c(O)cc(O)cc2OC1c1ccc(O)c(O)c1` (stereo not shown) [6d, 2-(3,4-Dihydroxyphenyl)-5,7-dihydroxychroman-3-yl hexadecanoate] are 240 µM (≈ 127 µg/mL), 42 mN/m, 29 Å^2/molecule and 10 µM.
Regarding `O=c1c(O)c(-c2ccc(O)c(O)c2)oc2cc(O)cc(O)c12` [quercetin], the “Radical Scavenging Activity: IC50” value in data set [3] was 1.59 ± 0.02 µg/mL.
Take `O=C(OC[C@H]1O[C@@H](OC(=O)c2cc(O)c(O)c(OC(=O)c3cc(O)c(O)c(O)c3)c2)[C@H](OC(=O)c2cc(O)c(O)c(OC(=O)c3cc(O)c(O)c(O)c3)c2)[C@@H](OC(=O)c2cc(O)c(O)c(OC(=O)c3cc(O)c(O)c(O)c3)c2)[C@@H]1OC(=O)c1cc(O)c(O)c(OC(=O)c2cc(O)c(O)c(O)c2)c1)c1cc(O)c(O)c(OC(=O)c2cc(O)c(O)c(O)c2)c1` [tannic acid]: the “Radical Scavenging Activity: IC50” value in data set [3] is 23.65 µg/mL.
`COc1ccc(O)c(C(C)(C)C)c1` [BHA, Butylated hydroxyanisole]: the “Radical Scavenging Activity: IC50” value in data set [3] is 21.3 ± 0.12 µg/mL. In addition, in the data set on E. coli (at concentrations above 100 μg/mL), the “growth of E. coli” value is recorded as 33%.
`O=C1c2c(O)cc(O)cc2OC(c2ccc(O)c(O)c2)C1O` (stereo not shown) [taxifolin]: in data set [3], the “Radical Scavenging Activity: IC50” value is 10.06 ± 1.08 µg/mL.
Take `Oc1cc(O)c2c(c1)O[C@H](c1ccc(O)c(O)c1)[C@@H](O)C2` [Catechin, (+)-catechin, reference compound]: the “Radical Scavenging Activity: IC50” value in data set [4] worked out at 2.43 ± 0.03 µg/mL. In the data set with Escherichia coli, the IC50 amounted to 36 ± 2 mM. Moreover, in data set [5], the “Water Solubility” value is 0.0157 M.
The compound `CCCCCCCCCCCC(=O)N[C@@H](C)C(=O)OC1Cc2c(O)cc(O)cc2OC1c1ccc(O)c(O)c1` (stereo partly shown) [7b, 2-(3,4-Dihydroxyphenyl)-5,7-dihydroxychroman-3-yl dodecanoylalaninate] showed a solubility in data set [1] of 360 µM (≈ 196 µg/mL). In data set [2], the “Surface tension from CAC (γw)” value amounted to 32 mN/m, the “Minimum occupied area per molecule” value is listed as 10 Å^2/molecule and the “Critical aggregation concentration (CAC)” value is 50 µM. Moreover, in data set [4], the “Radical Scavenging Activity: IC50” value is 2.42 ± 0.06 µg/mL. Also, the IC50 with Escherichia coli was found to be 34 ± 3 mM.
With `Cc1cc(C(C)(C)C)c(O)c(C(C)(C)C)c1` [BHT, Butylated hydroxytoluene], in data set [3], the “Radical Scavenging Activity: IC50” value was 12.8 ± 0.08 µg/mL. Besides, the “effect on growth of E. coli” value with E. coli (regardless of the concentration) is recorded as “fails to decrease the growth of E. coli”.
On to `CCCCCCCCCCCCCCCC(=O)N[C@@H](C)C(=O)OC1Cc2c(O)cc(O)cc2OC1c1ccc(O)c(O)c1` (stereo partly shown) [7d, 2-(3,4-Dihydroxyphenyl)-5,7-dihydroxychroman-3-yl hexadecanoylalaninate], for which the concentration in solution in data set [1] (solubility) came to 22 µM (≈ 13.2 µg/mL). In data set [2], the “Surface tension from CAC (γw)” value is given as 32 mN/m, the “Minimum occupied area per molecule” value was 45 Å^2/molecule and the “Critical aggregation concentration (CAC)” value turned out to be 2 µM. Further, the “Radical Scavenging Activity: IC50” value in data set [4] was found to be 26.73 ± 0.43 µg/mL.
As for `CCCCCCCC(=O)N[C@@H](C)C(=O)OC1Cc2c(O)cc(O)cc2OC1c1ccc(O)c(O)c1` (stereo partly shown) [7a, 2-(3,4-Dihydroxyphenyl)-5,7-dihydroxychroman-3-yl octanoylalaninate], the solubility in data set [1] was found to be 1300 µM (≈ 634 µg/mL). Further, in data set [2], the “Surface tension from CAC (γw)” value is 35 mN/m, the “Minimum occupied area per molecule” value was 8 Å^2/molecule and the “Critical aggregation concentration (CAC)” value worked out at 100 µM. In addition, the “Radical Scavenging Activity: IC50” value in data set [4] amounted to 2.06 ± 0.04 µg/mL. In addition, in the data set on Escherichia coli, the IC50 worked out at 32 ± 3 mM.
Turning to `CCCCCCCCCCCCCC(=O)N[C@@H](C)C(=O)OC1Cc2c(O)cc(O)cc2OC1c1ccc(O)c(O)c1` (stereo partly shown) [7c, 2-(3,4-Dihydroxyphenyl)-5,7-dihydroxychroman-3-yl tetradecanoylalaninate], in data set [1], the solubility turned out to be 580 µM (≈ 332 µg/mL). Besides, in data set [2], the “Surface tension from CAC (γw)” value amounted to 33 mN/m, the “Minimum occupied area per molecule” value is 19 Å^2/molecule and the “Critical aggregation concentration (CAC)” value is 40 µM. For the same compound, the “Radical Scavenging Activity: IC50” value in data set [4] was 2.01 ± 0.05 µg/mL. Besides, in the data set with Escherichia coli, the IC50 turned out to be 23 ± 1 mM.
As to `CCCCCCCC(=O)OC1Cc2c(O)cc(O)cc2OC1c1ccc(O)c(O)c1` (stereo not shown) [6a, 2-(3,4-Dihydroxyphenyl)-5,7-dihydroxychroman-3-yl octanoate], the solubility in data set [1] came out at 6000 µM (≈ 2500 µg/mL). Besides, in data set [2], the “Surface tension from CAC (γw)” value was 43 mN/m, the “Minimum occupied area per molecule” value is 14 Å^2/molecule and the “Critical aggregation concentration (CAC)” value turned out to be 890 µM.
For `O=C(O)c1cc(O)c(O)c(O)c1` [gallic acid], in data set [3], the “Radical Scavenging Activity: IC50” value is 2.04 ± 0.03 µg/mL.
As to `COc1cc(C[C@@H](CO)[C@H](CO)Cc2ccc(O)c(OC)c2)ccc1O` [secoisolariciresinol], in data set [3], the “Radical Scavenging Activity: IC50” value was 9.39 ± 0.01 µg/mL.
As for `O=C(O)/C=C/c1ccc(O)c(O)c1` [caffeic acid], the “Radical Scavenging Activity: IC50” value in data set [3] is 10.64 µg/mL.

By solubility is commonly meant the dissolved amount per volume that the medium holds. The low end stands for a poorly soluble substance, the high end for a readily soluble substance. For orientation: IC50 means the point on the concentration scale where inhibition reaches its midpoint.
